Assay results: patent US20110160262A1, “Method of treating retinal vein occlusion” (SANTEN PHARMACEUTICAL CO., LTD., priority 2005, published 2011)

How the values were obtained:
[1] = test system: laser-induced choroidal neovascularization; test: laser-induced choroidal neovascularization in rats; format: in vivo; conditions: rat
Text: In order to study the inhibitory effect of compound represented by the general formula [I] or a salt thereof on angiogenesis, the effects of nafamostat, FUT-187 and camostat, which are compounds represented by the general formula [I] or salts thereof, on laser-induced choroidal neovascularization in rats were studied. As a comparative compound, ethyl-4-(6-guanidinohexanoyloxy)benzoate methanesulfonate (hereinafter referred to as “gabexate”) represented by the following formula [III] was used.
A rat was given systemic anesthesia by intramuscular administration of 1 ml/kg of a mixed solution of a 5% (w/v) ketamine hydrochloride injectable solution and a 2% xylazine hydrochloride injectable solution (7:1), and a 0.5% (w/v) tropicamide-0.5% phenylephrine hydrochloride ophthalmic solution was instilled into the eyes to cause mydriasis, and then photocoagulation was carried out with a krypton laser photocoagulation apparatus. The photocoagulation was carried out in a posterior pole portion of ocular fundus at eight spots per eye sparsely by focusing on the retinal deep layer avoiding thick retinal vessels (coagulation conditions: spot size: 100 μm, output: 100 mW, coagulation time: 0.1 sec.). After the photocoagulation, the ocular fundus was photographed, and the site where the laser was irradiated was confirmed.
Nafamostat was dissolved in a 5% (w/v) glucose solution (prepared by dissolving D-glucose in physiological saline) to give a final concentration of 25 mg/ml, and the resulting nafamostat solution was intraperitoneally administered once a day at a dose of 1 ml/kg for 7 days including the day of surgery from the photocoagulation surgery. In the same manner, FUT-187 solutions at 25 mg/ml and 125 mg/ml and a camostat solution at 125 mg/ml were prepared, and each of the solutions was intraperitoneally administered once a day at a dose of 1 ml/kg for 7 days including the day of surgery from the photocoagulation surgery. In a comparative compound administration group, a solution obtained by dissolving gabexate in a glucose solution to give a final concentration of 50 mg/ml was administered in the same manner as above. In a vehicle administration group, a 5% (w/v) glucose solution was administered in the same manner.
On day 7 after photocoagulation, 0.1 ml of a 10% fluorescein solution was injected into the tail vein, and fluorescence fundus photography was carried out. In the fluorescence fundus photography, a spot where fluorescence leakage was not observed (absence of angiogenesis) was judged as negative, and a spot where fluorescence leakage was observed was judged as positive. When there are two photocoagulation sites where a little fluorescence leakage was observed, they were judged as positive (presence of angiogenesis). A neovascularization incidence rate was calculated in accordance with Equation 1. The neovascularization incidence rate was calculated based on the positive spot number relative to the 8 spots irradiated with a laser, and a choroidal neovascularization inhibition rate was calculated in accordance with Equation 2. The number of animals in each administration group is 4 to 7.
Each of nafamostat and FUT-187 was dissolved in a 1% (w/v) methyl cellulose solution to give a final concentration of 20 mg/ml, and the resulting solution was orally administered three times a day at a dose of 5 ml/kg for 7 days including the day of surgery from the photocoagulation surgery. In the same manner, camostat was suspended in a 1% (w/v) methyl cellulose solution to give a final concentration of 20 mg/ml, and the resulting suspension was orally administered three times a day at a dose of 5 ml/kg for 7 days including the day of surgery from the photocoagulation surgery. In a vehicle administration group, a 1% (w/v) methyl cellulose solution was administered in the same manner.
The evaluation was carried out with the same method as described above. The case number in each administration group is 6 to 7. […]

trypsin = trypsin (Homo sapiens, UniProt P07477); conditions: known activity; cited from earlier work
[2] = intraperitoneal administration (Table 1)
[3] = intraperitoneal, 25 mg/kg/day once a day for 7 days, evaluated day 7 after photocoagulation
[4] = oral, 300 mg/kg/day (three times a day) for 7 days, evaluated day 7
[5] = oral, intravitreal and subconjunctival administration (Tables 2 to 4)

Row | Compound | choroidal neovascularization inhibitory effect (in words) [1, 2] | Choroidal neovascularization inhibition rate (%) [1, 3] | Choroidal neovascularization inhibition rate (%) ([1]; intraperitoneal, 125 mg/kg/day once a day for 7 days, evaluated day 7 after photocoagulation) | Choroidal neovascularization inhibition rate (%) [1, 4] | choroidal neovascularization inhibitory effect (in words) [1, 5] | trypsin inhibitory activity (in words) (trypsin) | Choroidal neovascularization inhibition rate (%) ([1]; intraperitoneal, 50 mg/kg/day once a day for 7 days, evaluated day 7 after photocoagulation) | Choroidal neovascularization inhibition rate (%) ([1]; intravitreal, 10 nmol/eye, immediately after photocoagulation and on day 3, evaluated day 7) | Choroidal neovascularization inhibition rate (%) ([1]; subconjunctival, 100 μg/eye/day once a day, evaluated day 7)
1 | N=C(N)c1ccc2cc(OC(=O)c3ccc(NC4=NCCN4)cc3)ccc2c1 [FUT-187, 6′-amidino-2′-naphthyl-(4-(4,5-dihydro-1H-2-imidazolyl)amino) benzoate dimethanesulfonate] | exhibited a high choroidal neovascularization inhibition rate | 40.1% | 71.4% | 39.5% | exhibits an excellent choroidal neovascularization inhibitory effect | have the same activity |  |  | 
2 | CCOC(=O)c1ccc(OC(=O)CCCCCNC(=N)N)cc1 [Gabexate, ethyl-4-(6-guanidinohexanoyloxy)benzoate methanesulfonate] | did not exhibit a choroidal neovascularization inhibitory effect |  |  |  |  | has a trypsin inhibitory activity | −30.2% |  | 
3 | N=C(N)Nc1ccc(C(=O)Oc2ccc3cc(C(=N)N)ccc3c2)cc1 [Nafamostat, 6′-amidino-2′-naphthyl-4-guanidinobenzoate dimethanesulfonate] | exhibited a high choroidal neovascularization inhibition rate | 50.5% |  | 32% | exhibits an excellent choroidal neovascularization inhibitory effect | have the same activity |  | 26.5% | 51.6%
